Read-outs that look alike come from different tables or passages of the source. Marks after values point to notes of the source that are not given here.
How the values were obtained:
mice = assay: Mouse duration of anesthesia (LRR) after tail vein injection; format: in vivo
Experimental: The compounds were dissolved in 22.5% aqueous 2-(hydroxypropyl)-β-cyclodextrin. For compound 28, serial dilutions of a 8 mg/kg stock solution with 0.9% saline were made to obtain the lower doses tested.
At a dose of 8 mg/kg, compound MQ-35 caused LRR of about 3 minutes and at a dose of 16 mg/kg duration of LRR was increased to about 7 minutes.
At 4 mg/kg, LRR induced by KK-122 lasted about 5 minutes and at a dose of 8 mg/kg LRR lasted for about 9 minutes. For all three compounds, the onset of anesthesia was immediate (i.e., less than 30 seconds) and recovery was characterized by a rapid progression over 1-2 minutes from an initial return of leg movement followed by righting and subsequent walking around the cage.

[1] = target: picrotoxin binding site on GABAA receptors; assay: [35S]-TBPS displacement (inhibition of [35S]-TBPS binding); conditions: non-competitive displacement of [35S]-TBPS; ± standard error of the mean
Experimental: The IC50 values for the compounds of the examples as non-competitive displacers of [^35S]-TBPS from the picrotoxin binding site on GABAA receptors are reported in Table 1.
Results presented are from duplicate experiments performed in triplicate. Error limits are calculated as standard error of the mean. Methods used are known in the art (see, e.g., Jiang, et al., Neurosteroid analogues. 9. Conformationally constrained pregnanes: structure-activity studies of 13,24-cyclo-18,21-dinorcholane analogues of the GABA modulatory and anesthetic steroids (3α,5α)- and (3α,5β)-3-hydroxypregnan-20-one. J. Med. Chem. 2003, 46, 5334-5348).

[2] = target: T1, rat α1β2γ2L type GABAA receptors expressed in Xenopus laevis oocytes (Rattus norvegicus, UniProt P18508+P62813+P63138, INS375LLRMFSFK); assay: Oocyte electrophysiology: potentiation of chloride currents mediated by 2 μM GABA, and direct gating; format: cell-based; conditions: ± SEM (N≥4); for ratio of currents measured in the presence/absence of added compound, 0.1 μM: 0.1 μM compound; for ratio of currents measured in the presence/absence of added compound, 0.1 μM / ratio of currents measured in the presence/absence of added compound, 1.0 μM / ratio of currents measured in the presence/absence of added compound, 10 μM: 2 μM GABA; for ratio of currents measured in the presence/absence of added compound, 1.0 μM: 1.0 μM compound; for ratio of currents measured in the presence/absence of added compound, 10 μM: 10 μM compound; for (gating) 10 μM: ratio of compound only current/GABA current: direct current gated by 10 μM compound in the absence of GABA
T1 construct: expressed in transfected cells; host or cells: Xenopus laevis oocytes
Experimental: The compounds of the present disclosure were evaluated for the ability to potentiate chloride currents mediated by 2 μM GABA at rat α1β2γ2L type GABAA receptors expressed in Xenopus laevis oocytes and the results are shown in Table 2.
The GABA concentration used for the control response was 2 μM. Each compound was evaluated on at least four different oocytes at the concentrations indicated, and the results reported are the ratio of currents measured in the presence/absence of added compound. Gating represents direct current gated by 10 μM compound in the absence of GABA, and this current is reported as the ratio of compound only current/[…] current. Error limits are calculated as standard error of the mean (N≥4). Receptor expression and whole-cell and single-channel recordings were carried out as described previously (see Jiang, et al., Neurosteroid analogues. 9. Conformationally constrained pregnanes: structure-activity studies of 13,24-cyclo-18,21-dinorcholane analogues of the GABA modulatory and anesthetic steroids (3α,5α)- and (3α,5β)-3-hydroxypregnan-20-one. J. Med. Chem. 2003, 46, 5334-5348).

Tadpole = Tadpole loss of righting (LRR) and loss of swimming (LSR) reflexes; format: in vivo; conditions: for EC50: ± SEM
Excerpt: Table 3 discloses the anesthetic effects of the compounds of the present disclosure. In particular, the anesthetic effect of the compounds of the present disclosure on Loss of Righting Reflex (LRR) and Loss of Swimming Reflex (LSR).
Methods used are known in the art (see, e.g., Jiang, et al., Neurosteroid analogues. 9. Conformationally constrained pregnanes: structure-activity studies of 13,24-cyclo-18,21-dinorcholane analogues of the GABA modulatory and anesthetic steroids (3α,5α)- and (3α,5β)-3-hydroxypregnan-20-one. J. Med. Chem. 2003, 46, 5334-5348). Error limits are calculated as standard error of the mean (N=10 or more animals at each of five or more different concentrations).

[3] = loss of righting reflex, read-out: Tadpole LRR EC50
[4] = loss of swimming reflex, read-out: Tadpole LSR EC50
[5] = concentration of 3 μM, number of 10 tadpoles

T1 sequence (P62813 28-455, stated change not applied): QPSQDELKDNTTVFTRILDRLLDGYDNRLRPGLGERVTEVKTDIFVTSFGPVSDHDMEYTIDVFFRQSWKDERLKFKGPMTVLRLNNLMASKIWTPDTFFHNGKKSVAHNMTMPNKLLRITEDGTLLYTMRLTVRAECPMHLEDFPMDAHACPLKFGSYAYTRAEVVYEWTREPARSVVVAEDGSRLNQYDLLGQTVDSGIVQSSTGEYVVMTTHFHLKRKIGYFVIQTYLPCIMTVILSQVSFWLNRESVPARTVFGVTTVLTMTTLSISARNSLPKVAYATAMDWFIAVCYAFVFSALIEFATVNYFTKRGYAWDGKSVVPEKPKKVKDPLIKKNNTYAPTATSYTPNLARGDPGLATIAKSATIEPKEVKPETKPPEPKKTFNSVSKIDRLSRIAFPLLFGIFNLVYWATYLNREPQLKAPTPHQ
T1 sequence (P63138 26-474, stated change not applied): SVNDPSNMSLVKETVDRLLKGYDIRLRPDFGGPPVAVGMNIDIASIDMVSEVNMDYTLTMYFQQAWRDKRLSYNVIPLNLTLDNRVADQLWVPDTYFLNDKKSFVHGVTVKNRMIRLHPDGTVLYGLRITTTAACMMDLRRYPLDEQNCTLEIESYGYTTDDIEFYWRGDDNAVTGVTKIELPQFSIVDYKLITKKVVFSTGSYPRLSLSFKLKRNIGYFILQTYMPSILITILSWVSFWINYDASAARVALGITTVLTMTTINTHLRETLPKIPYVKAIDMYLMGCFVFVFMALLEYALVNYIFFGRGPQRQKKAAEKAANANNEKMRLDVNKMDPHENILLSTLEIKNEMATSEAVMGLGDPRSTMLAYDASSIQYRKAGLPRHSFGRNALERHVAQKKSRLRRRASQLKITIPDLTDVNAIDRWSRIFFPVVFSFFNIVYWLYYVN
T1 sequence (P18508 with tags, fused parts or gaps INS375LLRMFSFK): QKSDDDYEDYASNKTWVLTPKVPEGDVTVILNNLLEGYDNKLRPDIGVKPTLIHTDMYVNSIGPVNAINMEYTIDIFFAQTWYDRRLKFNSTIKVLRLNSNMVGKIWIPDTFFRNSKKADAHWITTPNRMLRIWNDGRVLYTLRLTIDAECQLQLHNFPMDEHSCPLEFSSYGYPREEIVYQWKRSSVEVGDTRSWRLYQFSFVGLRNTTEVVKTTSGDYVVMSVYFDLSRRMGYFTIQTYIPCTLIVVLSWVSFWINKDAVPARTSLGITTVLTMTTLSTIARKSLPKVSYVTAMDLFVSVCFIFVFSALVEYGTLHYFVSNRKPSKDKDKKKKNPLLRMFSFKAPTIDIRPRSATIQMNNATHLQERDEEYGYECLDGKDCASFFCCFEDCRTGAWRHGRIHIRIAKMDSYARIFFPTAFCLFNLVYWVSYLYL

SMILES | duration of anesthesia (LRR) (mice; 16 mg/kg) | IC50 [1] [µM] | ratio of currents measured in the presence/absence of added compound, 0.1 μM [2] | ratio of currents measured in the presence/absence of added compound, 1.0 μM [2] | ratio of currents measured in the presence/absence of added compound, 10 μM [2] | (gating) 10 μM: ratio of compound only current/GABA current [2] | EC50 (Tadpole; [3]) [µM] | EC50 (Tadpole; [4]) [µM] | duration of anesthesia (LRR) (mice; 1 mg/kg) | duration of anesthesia (LRR) (mice; 4 mg/kg) | duration of anesthesia (LRR) (mice; 8 mg/kg) | duration of anesthesia (LRR) (mice; threshold dose of 2 mg/kg) | melting point [°C] | tadpoles that lost LRR (Tadpole; [5]) | tadpoles that lost LSR (Tadpole; [5])
CC(=O)[C@H]1CC[C@H]2[C@@H]3CC[C@H]4C[C@H](O)CC[C@]4(C)[C@H]3C(=O)C[C@]12C [alphaxalone, reference compound] | about 4 minutes |  |  |  |  |  |  |  |  |  |  |  |  |  | 
CO[C@H]1[C@H]2CC[C@@H]3[C@H]4CC(=O)C[C@]4(C)CC[C@H]3[C@]2(C)CC[C@@H]1O [KK-122, (3β,4α,5β,8α,9β,10α,3α,14β)-3-Hydroxy-4-methoxyandrostan-16-one] |  | 0.083 ± 0.011 | 1.41 ± 0.07 | 6.48 ± 0.40 | 16.00 ± 2.21 | 0.08 ± 0.03 | 0.34 ± 0.4 | 1.73 ± 0.03 | no LRR was observed | about 5 minutes | about 9 minutes | about 1 minute | 198 to 200 |  | 
CO[C@@H]1C[C@@H]2[C@H]3C[C@H](OC)[C@@H]4C[C@@H](O)CC[C@@]4(C)[C@@H]3CC[C@@]2(C)C1 [MQ-125, (3β,5β,6α,8α,9β,10α,13α,14β,16α)-6,16-Dimethoxyandrostan3-ol] |  | 0.121 ± 0.01 | 1.19 ± 0.18 | 5.02 ± 0.40 | 14.08 ± 2.23 | 0.43 ± 0.41 |  |  |  |  |  |  | 127 to 129 | 10/10^a | 10/10^a
C[C@@]12CC[C@H]3[C@@H]4CC[C@H](O)C[C@H]4CC[C@@H]3[C@H]1CC(=O)C2 [KK-103] |  | 0.238 ± 0.021 | 0.97 ± 0.02 | 2.43 ± 0.02 | 10.52 ± 0.61 | 0.02 ± 0.01 | 1.16 ± 0.21 | 5.48 ± 0.12 |  |  |  |  | 160 to 162 |  | 
CO[C@H]1CC[C@]2(C)CC[C@@H]3[C@H](CC[C@@H]4C[C@@H](O)CC[C@]43C)[C@@H]12 [MQ-117, (3β,5β,8α,9β,10α,13α,14β,15α)-15-Methxoyandrostan-3-ol] |  | 0.019 ± 0.008 | 3.43 ± 0.29 | 11.10 ± 1.16 | 26.20 ± 2.91 | 0.06 ± 0.02 | 0.079 ± 0.003 | 0.33 |  |  |  |  | 137 to 139 |  | 
C[C@@]12CC[C@@H]3[C@H](CC[C@@H]4C[C@@H](O)CC[C@]43C)[C@H]1CC(=CC#N)C2 [KK-138, 2-[(3β,5β,8α,9β,10α,13α,14β)-3-Hydroxyandrostan-16-ylidene]-acetonitrile] |  | 0.032 ± 0.003 | 1.63 ± 0.23 | 5.87 ± 1.65 | 10.16 ± 3.18 | 0.14 ± 0.06 | 0.14 | 0.87 |  |  |  |  | 162 to 172 |  | 
C[C@@]12CC[C@@H]3[C@H](CC(=O)[C@@H]4C[C@@H](O)CC[C@@]34C)[C@H]1CC(=O)C2 [MQ-124, (3β,5β,8α,9β,10α,13α,14β)-3-Hydroxyandrostane-6,16-dione] |  | 8.95 ± 1.86 | 0.68 ± 0.03 | 0.85 ± 0.03 | 1.57 ± 0.05 | −0.01 ± 0 | > 10 | > 10 |  |  |  |  | 205 to 207 |  | 
CO[C@H]1[C@H]2CC[C@H]3[C@@H](CC[C@@]4(C)C(=O)CC[C@H]34)[C@]2(C)CC[C@@H]1O [KK-117, (3β,4α,5β,8α,9β,10α,13α,14β)-3-Hydroxy-4-methoxyandrostan-17-one] |  | 0.198 ± 0.025 | 1.21 ± 0.02 | 3.67 ± 0.33 | 12.21 ± 1.26 | 0.05 ± 0.03 | 0.59 ± 0.07 | 2.94 |  |  |  |  | 215 to 218 |  | 
C[C@@]12CC[C@@H]3[C@H](CC[C@@H]4C[C@@H](O)CC[C@]43C)[C@H]1CC(=O)C2 [MQ-35, (3β,5β,8α,9β,10α,13α,14β)-3-Hydroxyandrostan-16-one] | about 7 minutes | 0.081 ± 0.008 | 1.42 ± 0.02 | 7.72 ± 0.39 | 34.70 ± 1.69 | 0.15 ± 0.04 | 0.55 ± 0.09 | 1.73 ± 0.04 |  |  | about 3 minutes |  | 152 to 153 |  | 

Source: patent US10202413B2, “Neuroactive enantiomeric 15-, 16- and 17-substituted steroids as modulators for GABA type-A receptors” (priority 2013, dated 2019)
